Where “and” joins values, the source holds several entries; their conditions need not be identical. Identical values can stand only once. Inconclusive results and toxic doses are left out. The calls were made as follows: active = survival T/C of 150% or more; inactive = T/C below 125% in these data.
Test system: nude mice, LOX melanoma ip, survival T/C
Assay: NCI In Vivo Anticancer Drug Screen. Data for tumor model Human Amelanotic Melanoma (LOX) (intraperitoneal) in NU/NU BALB/C (nude) mice
Settings: endpoint: median survival time, higher = longer survival
Experimental: The antitumor activity of compounds was measured in mice bearing transplantable tumors. Survival or tumor size were measured and the results are expressed as the measurement made in the treated group (T) divided by the measurement made in the vehicle treated control group (C). The tumor model used in this assay is Human Amelanotic Melanoma (LOX) (intraperitoneal) in NU/NU BALB/C (nude) mice

[1] = dose: 4.0 mg/kg/injection, schedule: Q04DX003 (ip), vehicle: saline
[2] = dose: 8.0 mg/kg/injection, schedule: Q04DX003 (ip), vehicle: saline
[3] = dose: 16.0 mg/kg/injection, schedule: Q04DX003 (ip), vehicle: saline
[4] = dose: 20.0 mg/kg/injection, schedule: Q04DX003 (ip), vehicle: Klucel (hydroxypropylcellulose) (HPC)
[5] = dose: 50.0 mg/kg/injection, schedule: Q04DX003 (ip), vehicle: Klucel (hydroxypropylcellulose) (HPC)
[6] = dose: 200.0 mg/kg/injection, schedule: Q04DX003 (ip), vehicle: Klucel (hydroxypropylcellulose) (HPC)
[7] = dose: 150.0 mg/kg/injection, schedule: Q04DX003 (ip), vehicle: saline with Tween-80
[8] = dose: 25.0 mg/kg/injection, schedule: Q04DX003 (ip), vehicle: saline with Tween-80
[9] = dose: 50.0 mg/kg/injection, schedule: Q04DX003 (ip), vehicle: saline with Tween-80
[10] = dose: 100.0 mg/kg/injection, schedule: Q04DX003 (ip), vehicle: saline with Tween-80

Measured: T/C

COc1cccc2c1C(=O)c1c(O)c3c(c(O)c1C2=O)C[C@@](O)(C(=O)CO)C[C@@H]3OC1CC(N)C(O)C(C)O1 (stereo partly specified)
inactive: [1] 107 % of control | [2] 122 % of control | [3] 101 % of control
active: dose: 0.25 mg/kg/injection, schedule: Q01DX015 (ip), vehicle: water 162 % of control | dose: 0.5 mg/kg/injection, schedule: Q01DX015 (ip), vehicle: water 167 % of control | dose: 1.0 mg/kg/injection, schedule: Q01DX005 (ip), vehicle: water 208 % of control | dose: 1.0 mg/kg/injection, schedule: Q01DX015 (ip), vehicle: water 152 % of control | dose: 1.0 mg/kg/injection, schedule: Q04DX003 (ip), vehicle: water 270 % of control | dose: 2.0 mg/kg/injection, schedule: Q01DX001 (ip), vehicle: water 197 % of control | dose: 2.0 mg/kg/injection, schedule: Q04DX003 (ip), vehicle: water 203 % of control | dose: 4.0 mg/kg/injection, schedule: Q01DX001 (ip), vehicle: water 240 % of control | dose: 4.0 mg/kg/injection, schedule: Q04DX003 (ip), vehicle: water 151 % of control | dose: 4.0 mg/kg/injection, schedule: Q04DX003 (iv), vehicle: saline 158 % of control | dose: 8.0 mg/kg/injection, schedule: Q04DX003 (iv), vehicle: saline 275 % of control

CCOC(=O)NC1CCc2cc(OC)c(OC)c(OC)c2-c2ccc(OC)c(=O)cc21 (stereo unspecified)
active: dose: 2.5 mg/kg/injection, schedule: Q04DX003 (ip), vehicle: Klucel (hydroxypropylcellulose) (HPC) 154 % of control | dose: 5.0 mg/kg/injection, schedule: Q04DX003 (ip), vehicle: Klucel (hydroxypropylcellulose) (HPC) 154 % of control | dose: 10.0 mg/kg/injection, schedule: Q04DX003 (ip), vehicle: Klucel (hydroxypropylcellulose) (HPC) 178 % of control | [4] 214 % of control

O=NN(CCCl)C(=O)Oc1ccc(OC(=O)N(CCCl)N=O)cc1
inactive: [4] 118 % of control | dose: 40.0 mg/kg/injection, schedule: Q04DX003 (ip), vehicle: Klucel (hydroxypropylcellulose) (HPC) 94 % of control

CNC(=S)SC1=NS(=O)(=O)c2ccccc2N1
inactive: [5] 100 % of control | dose: 100.0 mg/kg/injection, schedule: Q04DX003 (ip), vehicle: Klucel (hydroxypropylcellulose) (HPC) 104 % of control | [6] 104 % of control

COc1cc2c[n+](C)c3c(c2cc1OC)Cc1cc2c(cc1-3)OCO2
inactive: dose: 18.75 mg/kg/injection, schedule: Q04DX003 (ip), vehicle: saline with Tween-80 108 % of control
active: [7] 201 % of control

O=C([O][Bi]([c]1ccccc1)[c]1ccccc1)c1ccccc1
inactive: dose: 12.5 mg/kg/injection, schedule: Q04DX003 (ip), vehicle: Klucel (hydroxypropylcellulose) (HPC) 98 % of control | [6] 103 % of control
active: [5] 211 % of control

O=C(Oc1ccccc1)c1cc(O)c(O)c(O)c1
inactive: dose: 75.0 mg/kg/injection, schedule: Q04DX003 (ip), vehicle: saline 99 % of control | dose: 300.0 mg/kg/injection, schedule: Q04DX003 (ip), vehicle: saline 88 % of control | dose: 600.0 mg/kg/injection, schedule: Q04DX003 (ip), vehicle: saline 94 % of control
active: dose: 37.5 mg/kg/injection, schedule: Q04DX003 (ip), vehicle: saline 157 % of control | dose: 150.0 mg/kg/injection, schedule: Q04DX003 (ip), vehicle: saline 152 % of control

COC1C(O)CC(OC2CC(Oc3cc4cc5c(c(O)c4c(O)c3C)C(=O)[C@@H](OC3CC(OC4CC(OC6CC(C)(O)C(OC(C)=O)C(C)O6)C(O)C(C)O4)C(O)C(C)O3)[C@H]([C@H](OC)C(=O)[C@@H](O)[C@@H](C)O)C5)OC(C)C2OC(C)=O)OC1C (stereo partly specified)
inactive: dose: 0.15 mg/kg/injection, schedule: Q04DX003 (ip), vehicle: Klucel (hydroxypropylcellulose) (HPC) 116 % of control
active: dose: 0.3 mg/kg/injection, schedule: Q04DX003 (ip), vehicle: Klucel (hydroxypropylcellulose) (HPC) 314 % of control | dose: 0.6 mg/kg/injection, schedule: Q04DX003 (ip), vehicle: Klucel (hydroxypropylcellulose) (HPC) 198 % of control

C=Cc1cc(OC)c2c(c1)c(=O)oc1c2cc(OC)c2c(O)ccc(C3OC(C)C(O)C(C)(O)C3O)c21 (stereo unspecified)
inactive: dose: 600.0 mg/kg/injection, schedule: Q04DX003 (ip), vehicle: DMSO 86 % of control

OCC1OC(n2cnc3c2NC=NC[C@H]3O)CC1O (stereo partly specified)
inactive: dose: 2.0 mg/kg/injection, schedule: Q04DX003 (ip), vehicle: saline 102 % of control | [1] 94 % of control | [2] 96 % of control | [3] 100 % of control

COc1cc2cc(c1Cl)N(C)C(=O)C[C@H](OC(=O)[C@H](C)N(C)C(C)=O)[C@]1(C)O[C@H]1[C@H](C)[C@@H]1C[C@@](O)(NC(=O)O1)[C@H](OC)C=C/C=C(\C)C2
active: dose: 0.07 mg/kg/injection, schedule: Q04DX003 (ip), vehicle: Klucel (hydroxypropylcellulose) (HPC) 304 % of control | dose: 0.12 mg/kg/injection, schedule: Q04DX003 (ip), vehicle: Klucel (hydroxypropylcellulose) (HPC) 304 % of control | dose: 0.2 mg/kg/injection, schedule: Q04DX003 (ip), vehicle: Klucel (hydroxypropylcellulose) (HPC) 304 % of control and 323 % of control | dose: 0.33 mg/kg/injection, schedule: Q04DX003 (ip), vehicle: Klucel (hydroxypropylcellulose) (HPC) 304 % of control | dose: 0.56 mg/kg/injection, schedule: Q04DX003 (ip), vehicle: Klucel (hydroxypropylcellulose) (HPC) 304 % of control
inactive: dose: 0.4 mg/kg/injection, schedule: Q04DX003 (ip), vehicle: Klucel (hydroxypropylcellulose) (HPC) 95 % of control

O=C(NNC(=O)c1cccc(C(=O)NNC(=O)c2ccc(Cl)c(Cl)c2)n1)c1ccc(Cl)c(Cl)c1
inactive: [8] 103 % of control | [9] 119 % of control | dose: 75.0 mg/kg/injection, schedule: Q04DX003 (ip), vehicle: saline with Tween-80 104 % of control | [10] 119 % of control | [7] 110 % of control | dose: 200.0 mg/kg/injection, schedule: Q04DX003 (ip), vehicle: saline with Tween-80 122 % of control | dose: 400.0 mg/kg/injection, schedule: Q04DX003 (ip), vehicle: saline with Tween-80 116 % of control
active: dose: 300.0 mg/kg/injection, schedule: Q04DX003 (ip), vehicle: saline with Tween-80 204 % of control | dose: 600.0 mg/kg/injection, schedule: Q04DX003 (ip), vehicle: saline with Tween-80 167 % of control | dose: 1200.0 mg/kg/injection, schedule: Q04DX003 (ip), vehicle: saline with Tween-80 164 % of control

NCCSC(C[N+](=O)[O-])c1ccccc1Cl (stereo unspecified)
inactive: dose: 12.5 mg/kg/injection, schedule: Q04DX003 (ip), vehicle: saline 107 % of control | dose: 25.0 mg/kg/injection, schedule: Q04DX003 (ip), vehicle: saline 115 % of control | dose: 50.0 mg/kg/injection, schedule: Q04DX003 (ip), vehicle: saline 96 % of control

[N-]=[N+]=[N-]
inactive: dose: 1.5 mg/kg/injection, schedule: Q04DX003 (ip), vehicle: water 99 % of control | dose: 3.0 mg/kg/injection, schedule: Q04DX003 (ip), vehicle: water 104 % of control | dose: 12.0 mg/kg/injection, schedule: Q04DX003 (ip), vehicle: water 89 % of control | dose: 24.0 mg/kg/injection, schedule: Q04DX003 (ip), vehicle: water 104 % of control

O=P1(N(CCCl)CCCl)NCCCO1 (stereo unspecified)
inactive: dose: 40.0 mg/kg/injection, schedule: Q04DX003 (ip), vehicle: saline 111 % of control | dose: 60.0 mg/kg/injection, schedule: Q04DX003 (ip), vehicle: saline 115 % of control | dose: 90.0 mg/kg/injection, schedule: Q04DX003 (ip), vehicle: saline 101 % of control

CC[C@@]1(O)C(=O)OCc2c1cc1n(c2=O)Cc2cc3ccccc3nc2-1
active: dose: 5.0 mg/kg/injection, schedule: Q04DX003 (ip), vehicle: saline with Tween-80 284 % of control

CC(C)N1C(=O)N(Cl)C2C1N(Cl)C(=O)N2Cl (stereo unspecified)
inactive: dose: 6.25 mg/kg/injection, schedule: Q04DX003 (ip), vehicle: saline with Tween-80 103 % of control and 88 % of control | dose: 12.5 mg/kg/injection, schedule: Q04DX003 (ip), vehicle: saline with Tween-80 102 % of control and 88 % of control | [8] 109 % of control and 98 % of control | [9] 107 % of control and 121 % of control | [10] 102 % of control and 120 % of control

COc1ccc(N=N/N=c2\sc3cc(OC)ccc3n2C)cc1
inactive: dose: 15.0 mg/kg/injection, schedule: Q04DX003 (ip), vehicle: saline with Tween-80 121 % of control | dose: 30.0 mg/kg/injection, schedule: Q04DX003 (ip), vehicle: saline with Tween-80 117 % of control | dose: 120.0 mg/kg/injection, schedule: Q04DX003 (ip), vehicle: saline with Tween-80 121 % of control
